Values of other authors as cited in patent US11999734B2, “Compounds and compositions for the treatment of cystic fibrosis” (Fondazione Istituto Italiano Di Tecnologia, priority 2018, dated 2024).

Legend:
F508del-CFTR = F508del-CFTR (Homo sapiens, UniProt P13569, DEL508-508); details: chronic treatment of cells with VX-770; Cholon et al. 2014, Veit et al. 2014
F508del-CFTR, sequence (P13569 with tags, fused parts or gaps DEL508-508): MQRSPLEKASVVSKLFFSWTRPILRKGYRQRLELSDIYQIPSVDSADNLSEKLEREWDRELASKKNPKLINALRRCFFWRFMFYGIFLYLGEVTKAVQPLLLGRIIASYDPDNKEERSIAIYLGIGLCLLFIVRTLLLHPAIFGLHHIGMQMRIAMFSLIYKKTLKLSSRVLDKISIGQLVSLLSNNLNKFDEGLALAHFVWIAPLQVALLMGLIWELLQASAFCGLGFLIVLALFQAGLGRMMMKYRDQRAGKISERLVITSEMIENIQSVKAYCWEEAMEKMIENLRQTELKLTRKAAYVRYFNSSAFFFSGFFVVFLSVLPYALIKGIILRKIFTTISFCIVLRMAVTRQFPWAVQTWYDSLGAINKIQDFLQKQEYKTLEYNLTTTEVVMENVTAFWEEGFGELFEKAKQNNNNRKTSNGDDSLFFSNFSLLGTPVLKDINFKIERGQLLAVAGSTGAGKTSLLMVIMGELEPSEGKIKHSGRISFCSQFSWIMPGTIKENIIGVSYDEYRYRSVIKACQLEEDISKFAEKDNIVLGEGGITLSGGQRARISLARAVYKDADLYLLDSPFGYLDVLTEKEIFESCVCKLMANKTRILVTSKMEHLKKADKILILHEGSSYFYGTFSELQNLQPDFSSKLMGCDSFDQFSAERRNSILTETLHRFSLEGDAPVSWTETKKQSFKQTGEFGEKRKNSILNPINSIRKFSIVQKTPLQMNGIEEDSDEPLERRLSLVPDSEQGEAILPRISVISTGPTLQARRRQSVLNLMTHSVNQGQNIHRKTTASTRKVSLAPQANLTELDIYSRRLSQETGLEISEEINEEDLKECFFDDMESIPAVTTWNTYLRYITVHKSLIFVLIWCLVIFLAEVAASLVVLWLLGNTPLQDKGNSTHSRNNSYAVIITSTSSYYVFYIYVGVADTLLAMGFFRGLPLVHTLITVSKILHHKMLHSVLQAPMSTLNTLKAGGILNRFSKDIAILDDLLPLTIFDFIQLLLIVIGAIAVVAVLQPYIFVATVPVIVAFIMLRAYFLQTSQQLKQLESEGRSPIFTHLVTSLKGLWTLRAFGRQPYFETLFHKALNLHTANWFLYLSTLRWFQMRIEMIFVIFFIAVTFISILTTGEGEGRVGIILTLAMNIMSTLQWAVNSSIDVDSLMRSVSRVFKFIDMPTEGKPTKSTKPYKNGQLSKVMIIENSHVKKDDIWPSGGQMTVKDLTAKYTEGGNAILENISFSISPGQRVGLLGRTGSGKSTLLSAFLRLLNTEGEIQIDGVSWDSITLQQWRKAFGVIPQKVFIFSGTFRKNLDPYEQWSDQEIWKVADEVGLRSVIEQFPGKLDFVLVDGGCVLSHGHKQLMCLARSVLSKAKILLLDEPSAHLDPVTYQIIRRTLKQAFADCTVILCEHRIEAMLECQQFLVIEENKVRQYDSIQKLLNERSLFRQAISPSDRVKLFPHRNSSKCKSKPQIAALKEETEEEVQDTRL

Cc1ccc(NC(=O)C2(c3ccc4c(c3)OC(F)(F)O4)CC2)nc1-c1cccc(C(=O)O)c1 [VX-809, lumacaftor]
therapeutic benefit in clinical trials (CF patients; CF patients with F508del mutation, Clancy et al. 2012): did not show a clear therapeutic benefit

CC(C)(C)c1cc(C(C)(C)C)c(NC(=O)c2c[nH]c3ccccc3c2=O)cc1O [VX-770, ivacaftor]
efficacy in clinical trials (CF patients; VX-770, Ramsey et al. 2011): high efficacy
effect on corrector activity of VX-809 (F508del-CFTR): decreases the corrector activity of VX-809
